# According to PMC10608985, “Retention Behavior of Anticancer Thiosemicarbazides in Biomimetic Chromatographic Systems and In Silico Calculations” (Molecules, 2023):
# Key:
# [1] = HPLC lipophilicity on cholesterol (Chol) stationary phase; format: physicochemical; settings: pH 7.4; for Log k Chol: Table S3; for log kw Chol: intercept, linear extrapolation to water; for log kw Chol / -S Chol: MeOH/20 mM acetate buffer; for -S Chol: slope of Soczewiński–Wachtmeister equation
# Experimental: (§1) For the evaluation of the compounds the following stationary phases were used: C-18; biomimetic, IAM; cholesterol (Chol); immobilized proteins HSA and AGP. For the lipophilicity determination, MeOH (C-18, Chol) or ACN (IAM) were applied as the organic modifiers. The measurements were performed at pH 7.4 of the mobile phase. The regular changes in the retention of all solutes used as organic modifier content in the mobile phase on three studied stationary phases were found. It is expressed by the Soczewiński–Wachtmeister Equation (1):log k = log kw + S (% organic modifier)(1) where log kw—the intercept; S—the slope of regression curve. […] Log kw as well as S parameters are commonly applied as lipophilicity descriptors.
# (§2) HPLC measurements were performed using a liquid chromatograph Knauer (Knauer, Berlin, Germany) with a dual pump, a 20 µL simple injection valve, and a UV–visible detector. The compounds were detected under UV light at 280 nm at room temperature. The retention time of an unretained solute (t0) was determined by the injection of a small amount of citric acid dissolved in water.
# Cogent 4 UDC Cholesterol (150 × 2.1 mm, 4 µm) MicroSolv Technology Corporation (Leland, NC, USA) column was used. The mobile phase consisted of different volume mixtures of MeOH as the organic modifier and 20 mM acetate buffer as the aqueous phase, to obtain pH = 7.4. The concentrations of the organic modifier were in the range from 0.3 to 0.8 (v/v) with step 0.05 or 0.1 (Table S3 in the Supplementary Materials). The flow rate was 0.35 mL × min^−1.
# [2] = design: method as in Kozyra et al. [31]; settings: MeOH/20 mM acetate buffer, pH 7.4, ref Kozyra et al. [31], cited from earlier work; for log kw C-18: intercept of Soczewiński–Wachtmeister equation (water as mobile phase); for -S C-18: slope of Soczewiński–Wachtmeister equation
# [3] = molecular target: T1, human serum albumin (HSA) (Homo sapiens, UniProt P02768); test: HPLC on immobilized HSA column, affinity and % plasma–protein binding; format: in vitro ADME; settings: for log K HSA: binding equilibrium constant from calibration curve (Equation 8) of log k HSA; for fraction unbound: human, pH 7.4, % plasma–protein binding converted from log K HSA (Equation 10), read-out: %PPB HSA (converted); for log k HSA: retention on HSA column, 50 mM ammonium acetate pH 7.4 / propan-2-ol 85/15 (v/v)
# T1 construct: purchased Chiralpac
# Experimental: (§3) Measurements on HSA and AGP immobilized protein columns were carried out with […] isopropanol content in the aqueous mobile phase.
# (§4) The standard calibration curve was used to predict log K values (K—binding equilibrium constant) of investigated compounds to HSA and AGP. Next, the log K values were converted into a percentage of plasma–protein binding (%PPB) of the compounds (Table 2). […] It is the lowest for compound 16 with -NO2 substituent, unsubstituted compound 1, and fluorine derivatives 2 and 9. In a group of […] derivatives in the same position of the phenyl ring, the %PPB to AGP increases with the increase in the atomic weight of the halogen atom and the lipophilicity of the molecule.
# as §2
# (§5) A human serum albumin (HSA) immobilized on the 5 µm silica gel column 100 × 3 mm (Chiralpac) and an α1-acid glycoprotein (AGP) immobilized on the 5 µm silica gel column 100 × 4 mm (Chiralpac) were used. The compounds were dissolved at 0.5 mg/mL concentration in 50% propan-2-ol and ammonium acetate solution (pH = 7.4) mixtures for HSA measurements. The mobile phase was composed of 50 mM ammonium acetate solution (pH = 7.4) and propan-2-ol at 85/15 (v/v) for AGP, respectively. The flow of mobile phases was 0.5 mL×min^−1. Log k values for the selected mobile phase were determined for all studied compounds and standard substances. The % protein plasma binding (% PPB) values were calculated from the calibration curve according to Valko et al..
# (§6) Calibration of the protein columns: The column performance check and the calibration check were performed before measurements. The racemic mixture of warfarin was used for their performance evaluation. The following calibration set of drugs was applied: bromazepam, carbamazepine, diclofenac, nicardipine, nizatidine, piroxicam for HSA and bromazepam, chlorpromazine, imipramine, nicardipine, nizatidine, propranolol, and warfarin for AGP. The analytical standards were purchased from Sigma Aldrich Steinhen, Steinheim am Albuch, Germany). The drugs were dissolved at 0.5 mg/mL concentration in 50% propan-2-ol and ammonium acetate solution mixtures (pH = 7.4). The obtained log k values from HPLC were plotted against the log K values (K—binding equilibrium constant, log K—linearized PPB) based on the literature data for plasma–protein binding (%, PPB). The following relationships were obtained: log KHSA = 0.2513 (±0.0984) + 1.0525 (±0.1171) log k HSA(8) n=6, R=0.9761, R^2 = 0.9528, Radj2 = 0.9410, s = 0.1948 log KAGP = 0.1733 (±0.0574) + 0.8902 (±0.0787) log k AGP(9) n=7, R=0.9810, R^2 = 0.9623, Radj2 = 0.9548, s = 0.1113
# (§7) Log K values were converted into %PPB using the following equation [15]:(10) %PPB=101×10^logK/1+10^logK
# [4] = system: α1-acid glycoprotein (AGP); test: HPLC on immobilized AGP column, affinity and % plasma–protein binding; format: in vitro ADME, human; settings: for log K AGP: binding equilibrium constant from calibration curve (Equation 9) of log k AGP; for fraction unbound: human, pH 7.4, % plasma–protein binding converted from log K AGP (Equation 10), read-out: %PPB AGP (converted); for log k AGP: retention on AGP column, 50 mM ammonium acetate pH 7.4 / propan-2-ol 85/15 (v/v)
# Experimental: as §3, §4, §2, §5, §6, §7
# [5] = HPLC lipophilicity on IAM (immobilized artificial membrane, phosphatidylcholine) stationary phase; format: physicochemical; settings: pH 7.4; for Log k IAM: Table S2; for log kw IAM: intercept, linear extrapolation to water; for log kw IAM / -S IAM: ACN/20 mM phosphate buffer; for -S IAM: slope of Soczewiński–Wachtmeister equation
# Experimental: as §1, §2
# A Rexchrom IAM.PC.DD2 (12 μm, 100 × 4.6 mm, 300 Å) (Regis Technologies, Morton Grove, IL, USA) column was used as the stationary phase. The compounds were dissolved at a concentration of 0.5 mg × mL^−1 in MeOH. The mobile phases consisted of different volume fractions of ACN and 20 mM phosphate buffer; the aqueous phase maintained a pH = 7.4 (0.02 M KH2PO4, Na2HPO4 and 0.15 M KCl). The acetonitrile concentration ranged from 0.05 to 0.4 (v/v), depending on the structure of compound, at 0.05 intervals (Table S2 in the Supplementary Materials). The flow rate was 1 mL × min^−1.
# T1 sequence (P02768 25-609): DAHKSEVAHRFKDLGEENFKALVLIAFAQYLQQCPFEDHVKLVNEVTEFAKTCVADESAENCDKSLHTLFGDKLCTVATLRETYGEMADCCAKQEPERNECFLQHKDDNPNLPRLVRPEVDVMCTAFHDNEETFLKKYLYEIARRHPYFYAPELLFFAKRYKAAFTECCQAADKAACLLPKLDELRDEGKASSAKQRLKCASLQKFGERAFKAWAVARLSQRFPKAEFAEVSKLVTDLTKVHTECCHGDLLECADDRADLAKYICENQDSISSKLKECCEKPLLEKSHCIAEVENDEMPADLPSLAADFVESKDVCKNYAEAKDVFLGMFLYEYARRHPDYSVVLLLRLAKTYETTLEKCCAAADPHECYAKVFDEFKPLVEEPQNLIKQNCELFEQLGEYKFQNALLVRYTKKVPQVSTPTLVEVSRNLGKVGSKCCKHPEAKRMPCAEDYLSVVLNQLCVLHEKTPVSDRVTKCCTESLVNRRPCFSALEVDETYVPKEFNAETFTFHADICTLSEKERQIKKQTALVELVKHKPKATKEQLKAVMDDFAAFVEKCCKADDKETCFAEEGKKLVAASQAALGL
Log k Chol ([1]; MeOH 0.35 v/v in mobile phase),Log k Chol ([1]; MeOH 0.40 v/v in mobile phase),Log k Chol ([1]; MeOH 0.45 v/v in mobile phase),Log k Chol ([1]; MeOH 0.50 v/v in mobile phase),Log k Chol ([1]; MeOH 0.60 v/v in mobile phase),log kw Chol [1],-S Chol [1],log K HSA [3],log k HSA [3],log K AGP [4],fraction unbound [4],log k AGP [4],Log k IAM ([5]; ACN 0.15 v/v in mobile phase),Log k IAM ([5]; ACN 0.20 v/v in mobile phase),Log k IAM ([5]; ACN 0.25 v/v in mobile phase),Log k IAM ([5]; ACN 0.35 v/v in mobile phase),log kw IAM [5],-S IAM [5],SMILES,log kw C-18 [2],-S C-18 [2],other results
0.957,0.699,0.487,0.184,-0.057,2.4598,4.3726,1.1581,0.8615,0.5586,0.209,0.4328,0.565,0.312,0.024,-0.441,1.4283,5.5312,O=C(COc1ccccc1)NNC(=S)Nc1cccc(F)c1 [Compound 5],2.4592,4.7921,Log k Chol ([1]; MeOH 0.80 v/v in mobile phase): -1.065; fraction unbound [3]: 0.056; Log k IAM ([5]; ACN 0.05 v/v in mobile phase): 1.193; Log k IAM ([5]; ACN 0.10 v/v in mobile phase): 0.876; Log k IAM ([5]; ACN 0.30 v/v in mobile phase): -0.274
,,1.095,0.716,0.574,3.4243,5.1337,2.2183,1.8689,0.8829,0.107,0.7971,1.494,1.133,0.710,-0.027,2.6121,7.6211,O=C(COc1ccccc1)NNC(=S)Nc1cc(Cl)ccc1Cl [Compound 14],3.7050,5.6376,Log k Chol ([1]; MeOH 0.70 v/v in mobile phase): -0.138; Log k Chol ([1]; MeOH 0.80 v/v in mobile phase): -0.783; Log k IAM ([5]; ACN 0.30 v/v in mobile phase): 0.154; Log k IAM ([5]; ACN 0.40 v/v in mobile phase): -0.366

# Further lines, the compound ahead of its results:
SMILES,Log k Chol ([1]; MeOH 0.35 v/v in mobile phase),Log k Chol ([1]; MeOH 0.40 v/v in mobile phase),Log k Chol ([1]; MeOH 0.45 v/v in mobile phase),Log k Chol ([1]; MeOH 0.50 v/v in mobile phase),Log k Chol ([1]; MeOH 0.60 v/v in mobile phase),log kw Chol [1],-S Chol [1],log K HSA [3],log k HSA [3],log K AGP [4],fraction unbound [4],log k AGP [4],Log k IAM ([5]; ACN 0.15 v/v in mobile phase),Log k IAM ([5]; ACN 0.20 v/v in mobile phase),Log k IAM ([5]; ACN 0.25 v/v in mobile phase),Log k IAM ([5]; ACN 0.35 v/v in mobile phase),log kw IAM [5],-S IAM [5],log kw C-18 [2],-S C-18 [2],other results
O=C(COc1ccccc1)NNC(=S)Nc1ccccc1 [Compound 1],0.857,0.620,0.440,0.110,-0.157,2.2209,4.0307,1.0986,0.8050,0.4018,0.277,0.2567,0.284,0.085,-0.142,-0.490,1.0288,4.4559,1.7866,3.7611,Log k Chol ([1]; MeOH 0.30 v/v in mobile phase): 0.979; Log k Chol ([1]; MeOH 0.80 v/v in mobile phase): -1.006; fraction unbound [3]: 0.065; Log k IAM ([5]; ACN 0.05 v/v in mobile phase): 0.999; Log k IAM ([5]; ACN 0.10 v/v in mobile phase): 0.548; Log k IAM ([5]; ACN 0.30 v/v in mobile phase): -0.518; Log k IAM ([5]; ACN 0.40 v/v in mobile phase): -0.556
O=C(COc1ccccc1)NNC(=S)Nc1ccc([N+](=O)[O-])cc1 [Compound 16],1.082,0.843,0.478,0.093,-0.189,2.8538,5.2122,1.7456,1.4198,0.3508,0.302,0.1994,0.590,0.253,0.016,-0.533,1.5455,6.0875,2.7200,5.1865,Log k Chol ([1]; MeOH 0.30 v/v in mobile phase): 1.264; fraction unbound [3]: 0.008; Log k IAM ([5]; ACN 0.05 v/v in mobile phase): 1.287; Log k IAM ([5]; ACN 0.10 v/v in mobile phase): 0.964
CSc1ccc(NC(=S)NNC(=O)COc2ccccc2)cc1 [Compound 17],1.434,1.108,0.878,0.510,0.379,3.1664,5.0386,1.6830,1.3603,0.6672,0.169,0.5548,0.821,0.513,0.282,-0.280,1.6998,5.7908,2.6753,4.6859,Log k Chol ([1]; MeOH 0.70 v/v in mobile phase): -0.316; Log k Chol ([1]; MeOH 0.80 v/v in mobile phase): -0.975; fraction unbound [3]: 0.011; Log k IAM ([5]; ACN 0.10 v/v in mobile phase): 1.147; Log k IAM ([5]; ACN 0.30 v/v in mobile phase): -0.101
